Data set [1] can be described thus: Plasma MEDICA16αα exposure in STZ diabetic rats (LC/MS). The data set is classed as in vivo. As to conditions: Sprague-Dawley, rat, po, 15 mg/kg, oral 15 mg/kg b.i.d, data not shown. The method, then:
Plasma aliquots of 100 μl were vortex-mixed with 50 μl of formic acid:methanol (1:1 v/v) solution containing an internal standard, extracted into n-hexane, centrifuged, and the hexane layer was evaporated to dryness. The residue was reconstituted in the mobile phase and injected into the LC/MS system [Waters Micromass ZQ mass spectrometer (Waters Co.)]. LC/MS conditions were as follows:)(Bridge MS; RP8 column, 3.5 μm, 2.1×100 mm column (Waters Co.); column temperature was 35° C.; isocratic mobile phase, methanol:water (82:18 v/v) containing 0.1% formic acid, at a flow rate of 0.2 ml/min; detector tuned to 500 L/hr nitrogen flow; source temperature; 400° C.; cone voltage 30V; ionization mode ESI+; 365 and 393 m/z for MEDICA16αα and the internal standard, respectively. Calibration curves were linear and validated in the 100 ng/ml to 5000 ng/ml range, with accuracy of 7-9% relative error and precision of 8-10% relative standard deviation.

Data set [2] concerns NOD mice. The data set can be described thus: Hyperinsulinemic-euglycemic clamp in pre-diabetic NOD mice. The class given is in vivo, mouse. The method, then:
Clamps were carried out according to Vanderbilt Mouse Metabolic Phenotyping Center, Vanderbilt University School of Medicine protocol (28), with minor modifications, using HPLC-purified ^3H-glucose (specific activity 13.5 Ci/mmol, MT-914 Moravek Biochemicals, priming dose of 1 μC followed by continuous infusion of 0.05 μCi·min-1 for a 90 min equilibration period), HumulinR insulin (Eli Lilly, 4 mU·kg-1. min-1), and 10% glucose solution.
Clamps were carried out in conscious 12-14-week old NOD female mice fasted for 3 hours, 3 days following catheters' insertion. […] Plasma glucose specific activity was verified on 80, 90, 100, and 120 min following insulin infusion. On 120 min, 12-μCi bolus of ^14C-2-deoxyglucose (DG) (specific activity 274.6 mCi/mmol, MC-392 Moravek Biochemicals) was injected, followed by blood sampling on 122, 125, 130, 135, and 145 min, to determine blood glucose and 2-deoxyglucose activity.
Upon sacrifice, gastrocnemius, superficial vastus lateralis, and soleus muscles were removed, immediately frozen in liquid nitrogen, and stored at −70° C. until further analysis. Glucose appearance (Ra) and disappearance (Rd) were determined using Steele non-steady-state equations. Endogenous glucose production (EndoRt) was determined by subtracting the glucose infusion rate (GIR) from total glucose turnover (Rt). Glucose metabolic index in muscle (Rg) was calculated by the equation:
[formula] where 2[^14C]DGPtissue is the 2[^14C]DG radioactivity in muscle normalized to tissue weight (dpm/g tissue), AUC 2[^14C]DGplasma is the area under the plasma 2[^14C]DG disappearance curve (dpm·min·m1-1), and [arterial glucose] is the average blood glucose (mmol/1) during the 80-120 min clamp period. Immuno-Histochemistry

Data set [3] concerns NOD mice. The experiment in a line: IPGTT in pre-diabetic NOD mice. The data set is classed as in vivo, mouse. As to conditions: 14-week and 24-week old NOD mice. As to the method: Overnight fasted NOD mice were injected i.p (2 gr/kg bw) with standard 20% dextrose solution. Tail vein blood was sampled on 0, 15, 30, 60, 90 and 120 minutes. Blood glucose was measured by glucometer. Plasma insulin prior to and 30 min following glucose injection was measured using Ultrasensitive Mouse Insulin ELISA kit (Crystal Chem).

The subject of the next data set is Soleus GLUT4. The experiment in a line: Activation of Soleus GLUT4 in STZ diabetic rats. The data set is classed as in vivo, rat. The method, then:
Administering a combination of Medica16αα and insulin was performed by treating STZ diabetic rats (FBG >300 mg/dl) with oral MEDICA16αα(15 mg/kg b.i.d) for five consecutive days, then MEDICA16αα-responsive rats were further treated with MEDICA16αα(15 mg/kg b.i.d) for 10 additional consecutive days (“STZ/MEDICA Res”), and MEDICA16αα non-responsive rats (FBG >250 mg/dl) were further treated for 10 additional consecutive days with either insulin Neutral Protamine Hagedorn (NPH) (3 u/kg b.i.d subcutaneously) (“STZ/NPH”), or with insulin NPH (3 u/kg b.i.d subcutaneously in combination with oral MEDICA16αα(15 mg/kg b.i.d) (“STZ/MEDICA NPH”).
Muscle tissue was fixed with 4% buffered formaldehyde for 4 hours. Paraffin sections (5 μm) were rehydrated and antigen retrieved in citrate buffer using a Biocare pressure cooker, followed by 5 minutes blocking in peroxidase and 10 minutes of protein block (Cas-Block). The sample was incubated with anti-GLUT4 antibody (AbCam ab65267), followed by polyclonal anti-mouse IgG. DAB substrate buffer was then added to achieve coloration. The specimens were subsequently dehydrated with ethanol, cleared with xylene and then mounted on glass cover slips. Digital images were obtained using Nikon Eclipse TE-2000E microscope equipped with Olympus DP70 camera. Image analysis was carried out using ImageJ software. […]
Protein lysates were prepared in sodium dodecyl sulfate (SDS) sample buffer (62 mM Tris (pH 6.8), 2.3% SDS, […] mercaptoethanol, 10% glycerol), and were subjected to SDS-PAGE, electro-transferred onto cellulose nitrate membranes (Schleicher & Schuell) and probed with the indicated first antibody, followed by HRP-labeled second antibody. Protein concentration was determined by BCA (Thermo Scientific). Bands were detected by ECL, and the intensity of individual bands was determined by densitometry using ImageJ 1.48 v software.

In data set [4] the test system is SHAM (control) non-diabetic rats. The data set can be described thus: Fasting blood glucose in SHAM (control) non-diabetic rats. The data set is classed as in vivo, rat. Particulars: oral 15 mg/kg b.i.d. As to the method: SHAM (control) rats were injected with 0.1 M of cold citrate buffer (pH 4.5). STZ diabetic or SHAM rats were dosed twice daily by gavage (orally) with 1% CMC (Sigma Aldrich C5678), or with HOOC—C(CH3)2—(CH2)12—C(CH3)2—COOH (2,2,15,15-tetramethylhexadecane-1,16-dioic acid) also termed herein “MEDICA16αα”, “Medica16αα” or M16αα(15 mg/kg body weight) suspended in 1% CMC, or injected intraperitoneal (i.p.) with Neutral Protamine Hagedorn (NPH) insulin (3 u/kg body weight b.i.d), as indicated.
Tail vein FBG was verified daily by a glucometer (Glucometer®, Accu-Check® Performa, Roche Diagnostics). Urine secretion, food and water consumption were measured in standard metabolic cages (Tecniplast™ Metabolic Cage Systems for Rodents) for 48 hour periods. Samples were collected and recorded every 12 hour.

Where two headings read alike, the source gives them in different places.

With `CC(C)(CCCCCCCCCCCCC(C)(C)C(=O)O)C(=O)O` [MEDICA16αα, 2,2,15,15-tetramethylhexadecane-1,16-dioic acid], the concentration at 10 days in data set [1] (read-out: plasma MEDICA16αα exposure, non-responsive rats) worked out at 26 ± 8.7 ng/mL. Also, the concentration at 10 days in data set [1] (read-out: plasma MEDICA16αα exposure, responsive rats) was determined as 22.5 ± 4.4 ng/mL. Also, in the data set with NOD mice [2], the clamped plasma insulin entry is “decrease”; the “deoxyglucose uptake into soleus and gastrocnemius muscles” value is “insulin-induced deoxyglucose uptake”; the endogenous glucose production result was “insulin-induced decrease”; the “increase in glucose infusion rate (GIR)” value amounted to 37%. In addition, in the data set on NOD mice [2], the “total body glucose turnover” value was “increase”. For the same compound, in the data set on NOD mice [3], the “pre-diabetic IPGTT profile” value is “normalizing”. Moreover, the glucose-stimulated plasma insulin result in the data set with NOD mice [3] (first 30 min of IPGTT) is “remained unaffected”. In the data set on Soleus GLUT4, the “soleus AKT (phospho-Akt(Ser473))” value is “activated”, the “soleus AMPK (phospho-ACC(Ser79))” value is “activated” and the “soleus phospho-AS160(Thr642)” value is given as “increase in phosphorylated AS160(Thr642)”. Further, the hypoglycemia entry in data set [4] is given as “did not result in hypoglycemia”.

The record behind these values is patent US10512624B2, “Long-chain amphipathic dicarboxylic acids for treatment of diabetes type-1” (Syndromex Ltd., priority 2016, dated 2019).
